# Results: patent US11471448B2 (priority 2020, dated 2022)
# Test system: rat venous stasis model, LPS-induced ARDS
# Experiment: Rat venous stasis (Wessler) model after LPS-induced lung injury (ARDS induced thrombosis)
# Format: in vivo
# Conditions: 250 mg/kg oral gavage 3, 24, 48, 72 h post LPS instillation; Sprague-Dawley rats; 30 min stasis
# From the text: This study assessed the efficacy of ABC294640 to reduce the incidence of adverse thromboembolic events in situ in acute respiratory distress syndrome (ARDS) conditions using a rat venous stasis model. This assay is designed to measure thrombotic risks following LPS-induced lung injury. LPS-induced lung injury is one of the most commonly used rodent models for ARDS and was described to mimic the neutrophilic inflammatory response observed in ARDS patients. The mechanism of LPS-induced ARDS is based on damage to endothelial cells and a systemic inflammatory response. […]
# Sprague-Dawley rats (male) weighing between 275 and 400 g were used for this study. […] The body weight was recorded before the instillation and 24, 48 and 72 hours post-instillation.
# In this study, ARDS was induced by intratracheal instillation of LPS. […] The segment was then excised and its content scored. […]
# • 1. Prior LPS or saline instillation, the functional respiratory parameters of all rat was assessed by whole-body plethysmography and SpO2 was evaluated on conscious rat with a collar probe pulse oximeter. […] The respiratory rate, the Penh and the inspiratory/expiratory time measurements was analyzed. • 2. […]
# • 5. Rats were evaluated periodically to ensure animal well-being (general behavior and daily body weight). • 6. […] SpO2 and whole-body plethysmography were also evaluated 24, 48 and 72 hours post-instillation. • 8. […]
smiles,measurement,value
"O=C(NCc1ccncc1)C12CC3CC(C1)CC(c1ccc(Cl)cc1)(C3)C2 [ABC294640, 3-(4-chlorophenyl)-adamantane-1-carboxylic acid (pyridin-4-ylmethyl)amide]","thrombosis (blood clot length, weight and total thrombus score)",reduction of thrombosis
